According to PMC6751662, “Pharmacological and functional similarities of the human neuropeptide Y system in C. elegans challenges phylogenetic views on the FLP/NPR system” (Cell Communication and Signaling : CCS, 2019):

Biological target: T1, NPR-5b (Caenorhabditis elegans, UniProt Q6F3C9)
T1 sequence (Q6F3C9 1-433): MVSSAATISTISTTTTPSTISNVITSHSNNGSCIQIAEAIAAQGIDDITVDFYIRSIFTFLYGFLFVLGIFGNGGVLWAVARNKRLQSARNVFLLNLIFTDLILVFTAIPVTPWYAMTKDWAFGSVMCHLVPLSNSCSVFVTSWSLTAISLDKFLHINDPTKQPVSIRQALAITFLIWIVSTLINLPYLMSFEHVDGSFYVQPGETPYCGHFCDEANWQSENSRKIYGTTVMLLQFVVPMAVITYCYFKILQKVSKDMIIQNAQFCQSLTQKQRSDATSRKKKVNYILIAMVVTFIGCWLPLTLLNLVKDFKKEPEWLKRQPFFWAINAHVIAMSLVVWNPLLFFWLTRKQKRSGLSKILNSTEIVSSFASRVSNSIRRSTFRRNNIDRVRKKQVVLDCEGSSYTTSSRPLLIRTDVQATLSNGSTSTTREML
Test: IP accumulation assay, endogenous Gαq + mock, NPR-5b
Format: cell-based, C. elegans
Conditions: 1 h, HBSS + 20 mM LiCl, HEK293 receptor + empty vector, HTRF IP-One, mean of >=3 independent experiments
Method: For measuring IP accumulation, HEK293 cells grown to 70–80% confluency in 6-well plates were transiently co-transfected using Metafectene Pro (2.5 μl/μg DNA; Biontex) with plasmids containing receptor and/or mock (empty pcDNA3.1) (for endogenous Gq-coupling) using 4 μg total DNA in a ratio of 3:1 following the manufacturer’s instructions. For testing Gα16- and GαΔ6qi4myr-coupling, plasmids encoding the corresponding Gα protein were co-transfected instead of mock. Gα16 is naturally promiscuous and stimulates the phospholipase C (PLC) pathway leading to IP production, while the exchange of the C-terminal four amino acids of Gαq for the corresponding residues of Gαi1 in the chimeric GαΔ6qi4myr confers the ability to couple to Gi/o protein-preferring receptors but still stimulate PLC, thus specifically redirecting downstream cellular signaling. 16 h post transfection, the cells were seeded into white 384-well plates at a density of 20,000 cells/well. Media was removed 24 h later and the cells were incubated with the indicated concentration of peptides for 1 h in HBSS + 20 mM LiCl. IP accumulation was measured with the HTRF-based IP-One Gq kit (Cisbio) on a microplate reader (Tecan Spark).
For in vitro activation, data is presented as mean ± SEM of at least three independent experiments conducted in technical triplicate. […]

IP assay endog. Gαq + mock, NPR-5b (0.1 nM peptide (so in the source)): 0.93 x-fold of basal
IP assay endog. Gαq + mock, NPR-5b (10 µM peptide): 1.11 x-fold of basal
Substance: APKPKFIRF-NH2 [FLP-5-1, C. elegans FMRFamide-like peptide, C-terminally amidated, synthesized by SPPS]
